# Data published in PubChem BioAssay (NCI).
#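 Each compound was tested at five concentrations against cells in 96-well plates for 48 hours. At the GI50, growth is halved. TGI: concentration producing complete growth inhibition.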
# Assays:
# Test in all cases: NCI tumour cell line growth inhibition, 48 h
# [1] = system: SF-539 CNS
# [2] = system: RPMI-8226 leukemia
# [3] = system: SNB-19 CNS
# [4] = system: A549 NSCLC
# [5] = system: IGROV1 ovarian
# [6] = system: SW-620 colon
# [7] = system: SNB-75 CNS
# [8] = system: U251 CNS
# [9] = system: NCI/ADR-RES ovarian
# [10] = system: COLO 205 colon
# [11] = system: MALME-3M melanoma
# [12] = system: MOLT-4 leukemia
# [13] = system: T-47D breast
# [14] = system: UACC-257 melanoma
# [15] = system: HOP-62 NSCLC
# [16] = system: SK-OV-3 ovarian
# [17] = system: A498 renal
# [18] = system: M14 melanoma
# [19] = system: ACHN renal
# [20] = system: MDA-MB-231 breast
# [21] = system: NCI-H226 lung
# [22] = system: NCI-H522 lung
# [23] = system: 786-0 renal
# [24] = system: TK-10 renal
# [25] = system: HCC-2998 colon
# [26] = system: SK-MEL-2 melanoma
# [27] = system: HL-60(TB) leukemia
# [28] = system: KM12 colon
# [29] = system: K-562 leukemia
# [30] = system: OVCAR-3 ovarian
# [31] = system: UO-31 renal
# [32] = system: BT-549 breast
# [33] = system: MCF7 breast
# [34] = system: HS 578T breast
# [35] = system: PC-3 prostate
# [36] = system: DU-145 prostate
# [37] = system: SK-MEL-5 melanoma
# [38] = system: UACC-62 melanoma
# [39] = system: OVCAR-5 ovarian
# [40] = system: NCI-H460 lung
# [41] = system: CAKI-1 renal
# [42] = system: SN12C renal
# [43] = system: EKVX NSCLC
# [44] = system: SF-268 CNS
# [45] = system: OVCAR-8 ovarian
# [46] = system: NCI-H23 lung
# [47] = system: CCRF-CEM leukemia
# [48] = system: HOP-92 NSCLC
# [49] = system: HCT-15 colon
# [50] = system: SK-MEL-28 melanoma
# [51] = system: LOX IMVI melanoma
# [52] = system: HT29 colon
# [53] = system: MDA-MB-435
# [54] = system: SR leukemia
# [55] = system: HCT-116 colon
# [56] = system: SF-295 CNS
# [57] = system: OVCAR-4 ovarian
# [58] = system: RXF 393 renal
smiles,measurement,setting,value
CN1C(=O)N(C)C2C1NN=c1s/c(=C\c3ccc(Cl)cc3Cl)c(=O)n12 (stereo not given),GI50,[1],131 nM
same,TGI,[1],3250 nM
same,GI50,[2],364 nM
same,TGI,[2],16300 nM
same,GI50,[3],339 nM
same,TGI,[3],> 100000 nM
same,GI50,[4],243 nM
same,TGI,[4],> 100000 nM
same,GI50,[5],326 nM
same,TGI,[5],> 50100 nM
same,GI50,[6],109 nM
same,TGI,[6],> 100000 nM
same,GI50,[7],27.4 nM
same,TGI,[7],2320 nM
same,GI50,[8],192 nM
same,TGI,[8],> 100000 nM
same,GI50,[9],130 nM
same,TGI,[9],18100 nM
same,GI50,[10],95.1 nM
same,TGI,[10],2580 nM
same,GI50,[11],1210 nM
same,TGI,[11],> 81600 nM
same,GI50,[12],363 nM
same,TGI,[12],> 100000 nM
same,GI50,[13],57.6 nM
same,TGI,[13],> 100000 nM
same,GI50,[14],12200 nM
same,TGI,[14],> 100000 nM
same,GI50,[15],116 nM
same,TGI,[15],30200 nM
same,GI50,[16],754 nM
same,TGI,[16],> 100000 nM
same,GI50,[17],67 nM
same,TGI,[17],653 nM
same,GI50,[18],167 nM
same,TGI,[18],> 37900 nM
same,GI50,[19],236 nM
same,TGI,[19],> 100000 nM
same,GI50,[20],479 nM
same,TGI,[20],19600 nM
same,GI50,[21],623 nM
same,TGI,[21],> 100000 nM
same,GI50,[22],95.8 nM
same,TGI,[22],> 57800 nM
same,GI50,[23],703 nM
same,TGI,[23],> 48800 nM
same,GI50,[24],10200 nM
same,TGI,[24],> 92400 nM
same,GI50,[25],281 nM
same,TGI,[25],15500 nM
same,GI50,[26],11700 nM
same,TGI,[26],> 100000 nM
same,GI50,[27],264 nM
same,GI50,[28],134 nM
same,TGI,[28],> 75400 nM
same,GI50,[29],47.3 nM
same,TGI,[29],> 50700 nM
same,GI50,[30],104 nM
same,TGI,[30],11200 nM
same,GI50,[31],892 nM
same,TGI,[31],> 71800 nM
same,GI50,[32],264 nM
same,TGI,[32],12800 nM
same,GI50,[33],45 nM
same,TGI,[33],> 48300 nM
same,GI50,[34],173 nM
same,TGI,[34],> 92600 nM
same,GI50,[35],167 nM
same,TGI,[35],> 100000 nM
same,GI50,[36],334 nM
same,TGI,[36],> 20500 nM
same,GI50,[37],167 nM
same,TGI,[37],1780 nM
same,GI50,[38],70.9 nM
same,TGI,[38],> 65200 nM
same,GI50,[39],601 nM
same,TGI,[39],> 100000 nM
same,GI50,[40],199 nM
same,TGI,[40],> 94300 nM
same,GI50,[41],60.8 nM
same,TGI,[41],> 62300 nM
same,GI50,[42],422 nM
same,TGI,[42],> 100000 nM
same,GI50,[43],425 nM
same,TGI,[43],> 100000 nM
same,GI50,[44],1660 nM
same,TGI,[44],> 100000 nM
same,GI50,[45],399 nM
same,TGI,[45],> 100000 nM
same,GI50,[46],370 nM
same,TGI,[46],52900 nM
same,GI50,[47],262 nM
same,TGI,[47],> 100000 nM
same,GI50,[48],406 nM
same,TGI,[48],79400 nM
same,GI50,[49],88.2 nM
same,TGI,[49],> 100000 nM
same,GI50,[50],4260 nM
same,TGI,[50],> 94600 nM
same,GI50,[51],159 nM
same,TGI,[51],> 100000 nM
same,GI50,[52],117 nM
same,TGI,[52],> 100000 nM
same,GI50,[53],33.3 nM
same,TGI,[53],2110 nM
same,GI50,[54],55.7 nM
same,TGI,[54],> 100000 nM
same,GI50,[55],131 nM
same,TGI,[55],> 40200 nM
same,GI50,[56],57.9 nM
same,TGI,[56],15300 nM
same,GI50,[57],1660 nM
same,TGI,[57],> 78900 nM
same,GI50,[58],86.2 nM
same,TGI,[58],925 nM
